7 compounds from PubChem BioAssay (NCI) can be followed below.

SMILES strings stand for the structures.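 Growth conditions: 96-well plates. Treatment: test compound, 48 hours, 5 concentrations. Analysis: linear interpolation between bracketing concentrations; unreached endpoints set to highest concentration. TGI denotes the concentration required for complete inhibition of growth.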

Holding throughout (assay): growth of human tumour cells (NCI), 48 h
For assay [1], the system named is XF 498 CNS.
Assay [2] has as its system RXF-631 renal.
Assay [3] concerns DLD-1 colon.
The test system of assay [4] is M19-MEL melanoma.
The subject of assay [5] is LXFL 529 NSCLC.
In assay [6] the test system is SNB-78 CNS.
The test system of assay [7] is DMS 114 small cell lung.
For assay [8], the system named is DMS 273 small cell lung.
Assay [9] deals with HOP-18 NSCLC.

With `CCOC(=O)N1c2c(ccn2C)-c2ccn(C)c2N1C(=O)OCC`, the TGI in [1] is 30.7 µM; in assay [2], 45.8 µM; in assay [3], 29.5 µM; in [4] it was 80 µM; in assay [5], 30.9 µM.
For the compound `CC(=O)OC[C@]1(C)CCCC2(C)C1CCC1C=C(C)[C@H]3CCC12C3` (some centres undefined), the TGI in [3], in assay [4], in assay [6] and in assay [5] was greater than 100 µM each time.
For `CC(=O)NC1=C(NC(C)(C)C)C(=O)c2ccccc2C1=O`, the TGI in assay [7] turned out to be 54.3 µM; in [1] it was 23.1 µM; in assay [8], 45.4 µM; in assay [9], 28.4 µM; in assay [3], 34.3 µM; in assay [4], 28.7 µM. Further, the values for the TGI in assay [6] and in assay [5] were 99.1 µM and 31.7 µM, respectively.
As to `COc1ccc(N2C(=O)[C@H]3[C@H]4CC(C(C)(C)C)CC[C@H]4c4c(n(C)c5ccccc45)[C@H]3C2=O)cc1` (some centres undefined), the TGI in assay [7], in assay [1], in assay [8], in [9], in assay [3] and in [4] was greater than 100 µM throughout. Also, in assay [5], the TGI is greater than 100 µM.
Consider `Cc1ccccc1NC(=O)c1c(C)oc2c1C(=O)c1ccccc1C2=O`, for which the TGI in assay [7] was 68 µM; in assay [1], greater than 70 µM; in [8], greater than 100 µM; in assay [3], greater than 68.6 µM; in assay [4] it was 26.6 µM; in assay [6], 5.98 µM. Moreover, in assay [5], the TGI was greater than 55.9 µM.
Regarding `C/C=C1\C=C(OC)CN(CCc2c[nH]c3ccccc23)C1`, the TGI in assay [7], in assay [1], in assay [8], in [3], in assay [4] and in [5] was greater than 100 µM in each case.
With `COc1ccc2cc3[nH]c(=O)cc(O)c3cc2c1OC`, the TGI in assay [7], in assay [1], in assay [2], in assay [9], in assay [4] and in assay [6] was greater than 100 µM throughout. Further, in [5], the TGI was greater than 100 µM.
